Experimental findings from paper PMC11852235, “Discovery of Effective Inhibitors Against Phosphodiesterase 9, a Potential Therapeutic Target of Alzheimer’s Disease with Antioxidant Capacities” (Antioxidants, 2025) are described below.

“And” between values parts separate entries of the source, which are not always exact repeats. Identical values can stand only once. Like-named read-outs stand apart in the source and are kept apart here.

Assay [1] has as its target T1, PDE9 (catalytic domain of PDE9A2) (Homo sapiens, UniProt O76083).
T1 construct: PDE9 recombinant catalytic domain (amino acid 181–506); made in house; host or cells: E. coli BL21 (Codonplus)
As to the kind of experiment: Enzymatic assay against PDE9 (3H-cGMP hydrolysis, scintillation counting). It counts as biochemical. The settings on record: for inhibition at 0.01 µM: at a concentration of 0.01 μM. Here is the method:
In brief, E. coli strain BL21 (Codonplus), which carrying with recombinant pET-PDE9A2 plasmid, was grown in LB medium (containing 100 μg/mL ampicillin and 0.4% glucose) at 37 °C until an OD600 achieved 0.6–0.8. Then, the temperature was turned down to 15 °C, and 0.1 mM iso-propyl-b-D-thiogalactopyranoside was added to LB medium to induce the expression of PDE9A2 protein. Bacteria were induced for 20 h and collected for purified PDE9A2 recombinant protein by a Ni-NTA column (Qiagen, Venlo, The Netherlands).
As for the enzymatic assays, ^3H-cGMP (20,000–30,000 cpm, GE Healthcare), the substrate for enzymatic assays against PDE9A2, were diluted in an assay buffer (containing 50 mM Tris-HCl (pH 8.0), 10 mM MgCl2, and 1 mM DTT). And then, the substrate ^3H-cGMP, catalytic domain of PDE9A2, and different concentrations of tested compounds were incubated at room temperature for 15 min. To terminate the reaction, 0.2 M ZnSO4 and 0.2 N Ba(OH)2 were added to the mixture, leaving unreacted ^3H-cGMP in the supernatant. […] Each compound was measured at a minimum of eight concentrations for the IC50 calculation and repeated at least three times.
4.Enzymatic assays against PDE9
The assay buffer contains 50 mM Tris-HCl (pH 8.0), 10 mM MgCl2 or 4 mM MnCl2, 1 mM DTT, and 10-20 nM 3H-cGMP (15000−30000 cpm/assay, CPM control). The reaction was carried out at room temperature for 15 min and then terminated by addition of 0.2 M ZnSO4. The reaction product 3H-GMP was precipitated out by […], whereas unreacted 3H-cGMP remained in the supernatant. The radioactivity in the supernatant was measured in 2.5 […]
(CPMenzyme). For the measurement of IC50 of inhibitors, at least seven concentrations of inhibitors were used in the presence of 3H-cGMP. The enzyme concentration in a range of 10− 100 ng/mL, which hydrolyzed 50- 70% of the substrate, was chosen for each inhibitory assay. The radioactivity was recorded as CPMinhibitor. The IC50 values for PDE9 were calculated using a nonlinear regression analysis.
Inhibition = […] × 100%

A short description of assay [2]: Antioxidant activity, ORAC-FL method. Conditions: Trolox as standard. The method, then: The modified Oxygen Radical Absorbance Capacity Fluorescein (ORAC-FL) method was used for antioxidant activity test. In brief, the mixture of test compounds (20 μL) and fluorescein (120 μL, final concentration of 150 nM) was added into a black 96-well plate and incubated for 15 min at 37 °C. Then, 60 μL of 2,2′-azobis(2-amidinopropane) dihydrochloride (AAPH) solution (12 mM) was added rapidly to induce the reaction. The fluorescence with an excitation wavelength of 485 nm and emission at 535 nm was measured in Spectrafluor Plus plate reader (Tecan, Crailsheim, Germany) every minute for 4 h. Integration of the area under the curve (AUC) was […] 1 to 8 μM Trolox was used as a standard. Each compound was tested at 1–10 μM at least in three independent assays. The ORAC-FL values of each compound were calculated according to Equation (1) and expressed as Trolox equivalents.(1) ORAC-FL value=AUCsample−AUCblank/AUCTrolox−AUCblank×ConcentrationTrolox/Concentrationsample

The mark [3] stands for this setting: 0.25 h, read-out: Inhibition ratio against PDE9.
[4] abbreviates: 0.25 h, at a concentration of 0.1 μM, read-out: Inhibition ratio against PDE9.
[5] abbreviates: 6.25 nM, read-out: Inhibition (PDE9 dose-response, single runs).
Setting [6] is: 25 nM, read-out: Inhibition (PDE9 dose-response, single runs).
Where [7] appears, read: 50 nM, read-out: Inhibition (PDE9 dose-response, single runs).
[8] abbreviates: 100 nM, read-out: Inhibition (PDE9 dose-response, single runs).
Where [9] appears, read: 200 nM, read-out: Inhibition (PDE9 dose-response, single runs).
Setting [10] is: 400 nM, read-out: Inhibition (PDE9 dose-response, single runs).
The mark [11] stands for this setting: 800 nM, read-out: Inhibition (PDE9 dose-response, single runs).
The mark [12] stands for this setting: 1600 nM, read-out: Inhibition (PDE9 dose-response, single runs).

T1 sequence (O76083 241-566): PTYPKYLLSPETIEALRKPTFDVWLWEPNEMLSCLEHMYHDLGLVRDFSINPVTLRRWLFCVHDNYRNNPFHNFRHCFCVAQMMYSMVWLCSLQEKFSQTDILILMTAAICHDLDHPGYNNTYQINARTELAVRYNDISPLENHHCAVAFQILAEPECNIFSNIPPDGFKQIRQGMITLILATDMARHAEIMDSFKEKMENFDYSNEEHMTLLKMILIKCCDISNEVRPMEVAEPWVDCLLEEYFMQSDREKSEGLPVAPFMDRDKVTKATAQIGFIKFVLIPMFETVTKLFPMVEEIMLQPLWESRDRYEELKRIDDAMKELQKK

`CC(Cc1c[nH]c2ccccc12)Nc1nc2c(cnn2C2CCCC2)c(=O)[nH]1` (stereo not shown) [Compound 17a, 6-((1-(1H-indol-3-yl)propan-2-yl)amino)-1-cyclopentyl-1,5-dihydro-4H-pyrazolo[3,4-d]pyrimidin-4-one]: the inhibition at 0.01 µM in assay [1] (setting [3]) was 68%. Besides, the inhibition at 0.1 µM in assay [1] (setting [4]) is 78%. Moreover, in assay [2], the ORAC was 0.37 ± 0.04 μmol of Trolox equiv/μmol tested compound.
As usually defined, the IC50 is the concentration that inhibits the measured activity by half. Lower therefore signals greater potency in that assay. As to `O=c1[nH]c(NCCc2c[nH]c3ccc(O)cc23)nc2c1cnn2C1CCCC1` [Compound 17b, 1-cyclopentyl-6-((2-(5-hydroxy-1H-indol-3-yl)ethyl)amino)-1,5-dihydro-4H-pyrazolo[3,4-d]pyrimidin-4-one], in assay [1], the IC50 is 0.0911 µM and 0.091 µM. In addition, the “Inhibition (PDE9 dose-response, single runs)” value in assay [1] (6.25 nM, 0.00625 µM) is 9.16%; in assay [1] (12.5 nM, 0.0125 µM), 9.23% and 4.22%; in assay [1] (25 nM, 0.025 µM), 21.21%; in assay [1] (50 nM, 0.05 µM), 34.04%; in assay [1] (100 nM, 0.1 µM), 49.42%; in assay [1] (200 nM, 0.2 µM) it was 66.06%. Also, the “Inhibition (PDE9 dose-response, single runs)” value amounted to 76.31% in assay [1] (400 nM, 0.4 µM); 86.82% in assay [1] (800 nM, 0.8 µM); 94.94% in assay [1] (1600 nM, 1.6 µM). The inhibition at 0.00625 µM in assay [1] (setting [5]) turned out to be 6.08%. In assay [1] (setting [6]), the inhibition at 0.025 µM stood at 24.1%. The inhibition at 0.05 µM in assay [1] (setting [7]) worked out at 36.3%. Besides, in assay [1] (setting [8]), the inhibition at 0.1 µM amounted to 55.3%. Besides, in assay [1] (setting [9]), the inhibition at 0.2 µM turned out to be 67.7%. Moreover, in assay [1] (setting [10]), the inhibition at 0.4 µM came to 82.6%. Moreover, the inhibition at 0.8 µM in assay [1] (setting [11]) was 90.6%. Besides, the inhibition at 1.6 µM in assay [1] (setting [12]) was 95.1%. The inhibition at 0.01 µM in assay [1] (setting [3]) stood at 16%.
Turning to `COc1ccc2[nH]cc(CC(C)Nc3nc4c(cnn4C4CCCC4)c(=O)[nH]3)c2c1` (stereo not shown) [Compound 17c, 1-cyclopentyl-6-((1-(5-methoxy-1H-indol-3-yl)propan-2-yl)amino)-1,5-dihydro-4H-pyrazolo[3,4-d]pyrimidin-4-one], the IC50 in assay [1] stood at 0.0018 µM. Further, the inhibition at 0.01 µM in assay [1] (setting [3]) was determined as 84%.
With `COc1ccc2[nH]cc(CC(C)Nc3nc4c(cnn4C4CCOCC4)c(=O)[nH]3)c2c1` (stereo not shown) [Compound 17d, 6-((1-(5-methoxy-1H-indol-3-yl)propan-2-yl)amino)-1-(tetrahydro-2H-pyran-4-yl)-1,5-dihydro-4H-pyrazolo[3,4-d]pyrimidin-4-one], the midpoint of inhibition in assay [1], the IC50, lay at 0.089 µM. Moreover, the “Inhibition (PDE9 dose-response, single runs)” value in assay [1] (6.25 nM, 0.00625 µM) worked out at 13.00%; in assay [1] (12.5 nM, 0.0125 µM), 26.71%; in assay [1] (25 nM, 0.025 µM), 28.77%; in assay [1] (50 nM, 0.05 µM) it was 37.79%; in assay [1] (100 nM, 0.1 µM), 60.91%; in assay [1] (200 nM, 0.2 µM) it was 75.64%. Also, the “Inhibition (PDE9 dose-response, single runs)” value in assay [1] (400 nM, 0.4 µM) came out at 87.67%; in assay [1] (800 nM, 0.8 µM), 94.30%; in assay [1] (1600 nM, 1.6 µM), 97.54%. In addition, the inhibition at 0.00625 µM in assay [1] (setting [5]) is 13.8%. Further, the inhibition at 0.0125 µM in assay [1] (12.5 nM, read-out: Inhibition (PDE9 dose-response, single runs)) amounted to 34.7%. The inhibition at 0.025 µM in assay [1] (setting [6]) amounted to 26.4%. Moreover, in assay [1] (setting [7]), the inhibition at 0.05 µM came out at 43.8%. The inhibition at 0.1 µM in assay [1] (setting [8]) worked out at 61.6%. Also, in assay [1] (setting [9]), the inhibition at 0.2 µM was 77.6%. Besides, in assay [1] (setting [10]), the inhibition at 0.4 µM is 90.5%. Further, the inhibition at 0.8 µM in assay [1] (setting [11]) was 96.4%. Moreover, in assay [1] (setting [12]), the inhibition at 1.6 µM is 108%. Besides, in assay [1] (setting [3]), the inhibition at 0.01 µM worked out at 13%.
In the case of `CC(CCc1c[nH]c2ccccc12)Nc1nc2c(cnn2C2CCCC2)c(=O)[nH]1` (stereo not shown) [Compound 17e, 6-((4-(1H-indol-3-yl)butan-2-yl)amino)-1-cyclopentyl-1,5-dihydro-4H-pyrazolo[3,4-d]pyrimidin-4-one], the inhibition at 0.01 µM in assay [1] (setting [3]) amounted to 67%. For the same compound, the inhibition at 0.1 µM in assay [1] (setting [4]) was determined as 83%. Moreover, the ORAC in assay [2] is 0.33 ± 0.002 μmol of Trolox equiv/μmol tested compound.
The like results for `CC(CC1CNc2ccccc21)Nc1nc2c(cnn2C2CCCC2)c(=O)[nH]1` (stereo not shown) [Compound 17f, 1-cyclopentyl-6-((1-(indolin-3-yl)propan-2-yl)amino)-1,5-dihydro-4H-pyrazolo[3,4-d]pyrimidin-4-one] were, in that order, 59%, 67% and 0.66 ± 0.04 μmol of Trolox equiv/μmol tested compound.
`COc1ccc2[nH]cc(CN[C@H](C)c3nc4c(cnn4C4CCCC4)c(=O)[nH]3)c2c1` [Compound 18c, (R)-1-cyclopentyl-6-(1-(((5-methoxy-1H-indol-3-yl)methyl)amino)ethyl)-1,5-dihydro-4H-pyrazolo[3,4-d]pyrimidin-4-one] gave an IC50 in assay [1] of 0.194 µM. The “Inhibition (PDE9 dose-response, single runs)” value is -0.81% and -1.99% in assay [1] (6.25 nM, 0.00625 µM); 4.63% and -3.63% in assay [1] (12.5 nM, 0.0125 µM); -0.82% and 5.95% in assay [1] (25 nM, 0.025 µM); -1.13% and 3.15% in assay [1] (50 nM, 0.05 µM); 16.13% in assay [1] (100 nM, 0.1 µM); 51.73% in assay [1] (200 nM, 0.2 µM). Moreover, the “Inhibition (PDE9 dose-response, single runs)” value in assay [1] (400 nM, 0.4 µM) amounted to 69.38%; in assay [1] (800 nM, 0.8 µM), 80.02%; in assay [1] (1600 nM, 1.6 µM), 87.34%. The values for the inhibition at 0.1 µM in assay [1] (setting [8]) and in assay [1] (setting [4]) were 9.05% and below 30%, respectively. For the same compound, in assay [1] (setting [9]), the inhibition at 0.2 µM was 42.9%. For the same compound, the inhibition at 0.4 µM in assay [1] (setting [10]) came out at 75.3%. Also, the inhibition at 0.8 µM in assay [1] (setting [11]) was 90.6%. In addition, in assay [1] (setting [12]), the inhibition at 1.6 µM stood at 90.2%.
For the compound `COc1ccc2c(c1)c(CN[C@H](C)c1nc3c(cnn3C3CCCC3)c(=O)[nH]1)cn2C` [Compound 18d, (R)-1-cyclopentyl-6-(1-(((5-methoxy-1-methyl-1H-indol-3-yl)methyl)amino)ethyl)-1,5-dihydro-4H-pyrazolo[3,4-d]pyrimidin-4-one], the IC50 in assay [1] is 0.214 µM. Moreover, the “Inhibition (PDE9 dose-response, single runs)” value was 4.86% and 1.81% in assay [1] (6.4875 nM, 0.0064875 µM); 9.60% in assay [1] (12.975 nM, 0.012975 µM); 11.54% in assay [1] (25.95 nM, 0.02595 µM); 21.64% in assay [1] (51.9 nM, 0.0519 µM); 34.81% in assay [1] (103.8 nM, 0.1038 µM); 49.32% in assay [1] (207.6 nM, 0.2076 µM). The “Inhibition (PDE9 dose-response, single runs)” value in assay [1] (415.2 nM, 0.4152 µM) is given as 80.76%; in assay [1] (830.4 nM, 0.8304 µM), 88.96%. The inhibition at 0.012975 µM in assay [1] (12.975 nM, read-out: Inhibition (PDE9 dose-response, single runs)) is 4.99%. Further, the inhibition at 0.02595 µM in assay [1] (25.95 nM, read-out: Inhibition (PDE9 dose-response, single runs)) stood at 16.6%. In assay [1] (51.9 nM, read-out: Inhibition (PDE9 dose-response, single runs)), the inhibition at 0.0519 µM stood at 20.2%. Also, in assay [1] (103.8 nM, read-out: Inhibition (PDE9 dose-response, single runs)), the inhibition at 0.1038 µM was determined as 33.4%. In assay [1] (207.6 nM, read-out: Inhibition (PDE9 dose-response, single runs)), the inhibition at 0.2076 µM came out at 54.3%. Moreover, the inhibition at 0.4152 µM in assay [1] (415.2 nM, read-out: Inhibition (PDE9 dose-response, single runs)) came out at 86.5%. The inhibition at 0.8304 µM in assay [1] (830.4 nM, read-out: Inhibition (PDE9 dose-response, single runs)) came to 93%.
